{"source": "patent US8324280B2", "about": "“Treatment of prostate cancer with DDC inhibitor” (The University of British Columbia, priority 2008, dated 2012)", "key": {"[1]": {"tested_on": "neuroendocrine cancer cell lines", "conditions": "including a carcinoid cancer and a small cell lung cancer cell line; cited from earlier work"}, "[2]": {"tested_on": "parental LNCaP xenografts", "test": "Parental LNCaP tumour xenografts in castrated mice, progression to androgen-independence", "format": "in vivo", "procedure": "Parental LNCaP cells were inoculated subcutaneously (s.c.), after resuspension in 0.1 mL of Matrigel (Becton Dickinson Labware), into two flank regions (2.5×10^6 cells/site) of 6 to 8 week old male athymic nude mice (Harlan Sprague Dawley, Inc.) via a 27-gauge needle under halothane anesthesia. Tumour volume and serum PSA measurements (blood collected from the tail vein) were performed once per week after tumours became palpable. PSA levels were measured by ELISA (ClinPro International) and tumour size was calculated by the formula; length×width×depth×0.5236. Once serum PSA values reached 75-100 ng/mL, mice were castrated and treated with or without carbidopa. Carbidopa was purchased from Sigma and dissolved in DMSO. The solution was diluted in PBS to a final concentration of 10% DMSO and sterilized through a 0.2 μm filter. Carbidopa solution was injected intraperitoneally into half of the mice (25 mg per kg of body weight) for the +carbidopa group, while the remaining mice received vehicle injections consisting of 10% DMSO in PBS (−carbidopa group). Injections were carried out daily for the duration of the experiment. Each animal group contained 5-6 mice. Serum PSA and tumour volume values were measured with progression to androgen-independence and normalized to pretreatment values (set at 100%) to obtain the mean percentage PSA and mean tumour volume of pre-treatment (±SEM). All animal procedures were performed according to the guidelines of the Canadian Council of Animal Care and with appropriate institutional certification. Statistical analysis was performed using the Student's t-test (two-sample equal variance) with JMPIN statistical software (Version 4.0.2, SAS Institute Inc.)."}, "LNCaP-DDC xenografts": {"tested_on": "LNCaP-DDC xenografts", "test": "LNCaP-DDC (DDC overexpressing) tumour xenografts with carbidopa treatment", "format": "in vivo, mice", "conditions": "25 mg/kg intraperitoneally daily, Dox", "procedure": "(§1) LNCaP-DDC and LNCaP-Vector control cells were inoculated subcutaneously (s.c.), after resuspension in 0.1 mL of Matrigel (Becton Dickinson Labware), into two flank regions (2.5×10^6 cells/site) of 6 to 8 week old male athymic nude mice (Harlan Sprague Dawley, Inc.) via a 27-gauge needle under halothane anesthesia. Tumour volume and serum PSA measurements (blood collected from the tail vein) were performed once per week after tumours became palpable. PSA levels were measured by ELISA (ClinPro International) and tumour size was calculated by the formula; length×width×depth×0.5236. Once serum PSA values reached 75-100 ng/mL, mice in both the LNCaP-DDC and LNCaP-Vector control groups were given Dox-treated water (200 μg/mL) and treated with or without carbidopa. Carbidopa was purchased from Sigma and dissolved in DMSO. The solution was diluted in PBS to a final concentration of 10% DMSO and sterilized through a 0.2 μm filter. Carbidopa solution was injected intraperitoneally into half of the mice (25 mg per kg of body weight) for the +carbidopa groups, while the remaining mice received vehicle injections consisting of 10% DMSO in PBS (−carbidopa groups). Injections were carried out daily for the duration of the experiment. […] PSA velocity and tumour growth rate differences were determined by one-way ANOVA and Tukey's multiple comparison test. […]"}, "[3]": {"tested_on": "pure neuroendocrine tumour", "conditions": "in combination with other drugs; implanted prostate NE cancer cells; cited from earlier work"}, "[4]": {"tested_on": "LNCaP-Vector control xenografts", "test": "LNCaP-Vector control tumour xenografts with carbidopa treatment", "format": "in vivo, mice", "conditions": "25 mg/kg intraperitoneally daily, Dox, endogenous DDC only", "procedure": "as §1"}, "C4-2 cells": {"tested_on": "C4-2 cells", "test": "MTS cell proliferation assay, androgen-independent C4-2 cells", "format": "cell-based, human", "conditions": "25 μM", "procedure": "Cell proliferation assays were performed using the 3-(4,5-dimethylhiazol-2-yl)-5-(3-carboxymethoxyphenyl)-2-(4-sulfophenyl)-2H-tetrazolium Assay (MTS) according to the manufacturer's protocol, with minor modifications (Promega). C4-2 cells were plated in 96-well plates at a density of 750 cells per well in RPMI medium containing 5% CSS for 1 day. On the following day, the DDC inhibitors, carbidopa (25 μM) and NSD-1015 (10 μM)±0.1 nM R1881 were added to each well in charcoal-stripped serum (CSS; Hyclone, VWR) RPMI media. The cells were harvested at days 0, 2, 4, and 6, with a medium change every 3 days. Each time point was measured with 6 replicates.\n(§2) Student's t-test (two-sample equal variance) was used to evaluate statistically significant differences. All calculated p-values were two-sided and those less than 0.05 were considered statistically significant."}, "LNCaP cells": {"tested_on": "LNCaP cells", "test": "MTS cell proliferation assay, androgen-dependent LNCaP cells", "format": "cell-based, human", "conditions": "50 μM", "procedure": "Cell proliferation assays were performed using the 3-(4,5-dimethylhiazol-2-yl)-5-(3-carboxymethoxyphenyl)-2-(4-sulfophenyl)-2H-tetrazolium Assay (MTS) according to the manufacturer's protocol, with minor modifications (Promega). LNCaP cells were plated in 96-well plates at a density of 3000 cells per well and incubated in RPMI medium containing 5% CSS for one day. On the following day, the DDC inhibitors, carbidopa (25 and 50 μM) and NSD-1015 (10 μM)±0.1 nM R1881 were added to each well in charcoal-stripped serum (CSS; Hyclone, VWR) RPMI media. The cells were harvested at days 0, 2, 4, 6 and 8, with a medium change every 3 days. Each time point was measured with 6 replicates.\nas §2"}, "DU 145": {"tested_on": "DU 145", "conditions": "cited from earlier work"}}}
{"smiles": "C[C@@](Cc1ccc(O)c(O)c1)(NN)C(=O)O", "note": "[carbidopa, α-Methyl-dopahydrazine]", "values": [{"measurement": "lethality to cancer cell lines", "setting": "[1]", "result": "lethal to several but not all tested neuroendocrine cancer cell lines"}, {"measurement": "decrease in PSA level with treatment versus control group", "setting": "[2]; 11 weeks", "result": 4.3, "unit": "fold"}, {"measurement": "decrease in tumour growth versus control group", "setting": "[2]; 11 weeks", "result": 5.4, "unit": "fold"}, {"measurement": "tumour volume, of pre-treatment", "setting": "[2]; castrated mice, 25 mg/kg i.p. daily, 11 weeks", "result": "478±97", "unit": "%"}, {"measurement": "serum PSA level, of pre-treatment", "setting": "[2]; castrated mice, 25 mg/kg i.p. daily, 11 weeks (termination)", "result": "167±36", "unit": "%"}, {"measurement": "serum PSA level, of pre-treatment", "setting": "[2]; castrated mice, 25 mg/kg i.p. daily, week 1", "result": "38±5", "unit": "%"}, {"measurement": "serum PSA level, of pre-treatment", "setting": "[2]; castrated mice, 25 mg/kg i.p. daily, week 10", "result": "148±34", "unit": "%"}, {"measurement": "increase of tumour volume from pre-treatment volume", "setting": "[2]; over 11 weeks", "result": "about 5 fold"}, {"measurement": "PSA velocity (rate of PSA production)", "setting": "LNCaP-DDC xenografts; over 35 days, PSA normalized to pre-treatment 100%", "result": "14.7±0.6"}, {"measurement": "tumour growth rate", "setting": "LNCaP-DDC xenografts; over 49 days, volume normalized to pre-treatment 100%", "result": "22.5±3"}, {"measurement": "reduction of tumour growth", "setting": "[3]", "result": 40, "unit": "%"}, {"measurement": "PSA velocity (rate of PSA production)", "setting": "[4]; over 35 days", "result": "7.2±1"}, {"measurement": "tumour growth rate", "setting": "[4]; over 49 days", "result": "9.8±2"}, {"measurement": "reduction of number of cells relative to control non-treated cells", "setting": "C4-2 cells; day 6, absence of androgen", "result": 1.58, "unit": "fold"}, {"measurement": "reduction of number of cells relative to control non-treated cells", "setting": "C4-2 cells; day 6, presence of androgen (0.1 nM R1881)", "result": 1.80, "unit": "fold"}, {"measurement": "reduction of number of cells relative to control non-treated cells", "setting": "LNCaP cells; day 8, absence of androgen", "result": 1.42, "unit": "fold"}, {"measurement": "reduction of number of cells relative to control non-treated cells", "setting": "LNCaP cells; day 8, presence of androgen (0.1 nM R1881)", "result": 1.69, "unit": "fold"}, {"measurement": "effect on proliferation", "setting": "DU 145", "result": "did not affect proliferation"}]}
